The values below come from US20040023884A1, “Biologically active peptides from functional domains of bactericidal/permeability-increasing protein and uses thereof” (priority 1993, published 2004).

Assay [1] in a line: Heparin binding by tryptophan fluorescence quenching. The following applies: for Kd: Stern-Volmer plots. An excerpt: (§1) The naturally-occurring amino acid tryptophan can emit light (i.e., it fluoresces) having a wavelength between 300 and 400 nm after excitation with light having a wavelength of between about 280 nm and 290 nm, preferably 285 nm. The amount of emitted light produced by such fluorescence is known to be affected by the local environment, including pH and buffer conditions, as well as binding interactions between proteins and other molecules. Some BPI functional domain peptides derived from domains II and III contain tryptophan residues, and tryptophan fluorescence was used to assay binding interactions between the BPI functional domain peptides of the invention and LPS or heparin.
(§2) Tryptophan fluorescence of the BPI functional domain peptides of the invention was determined in the presence or absence of LPS or heparin using a SPEX Fluorolog fluorimeter. Samples were excited with 285 nm light using a 0.25 nm slitwidth. Emission wavelengths were scanned between 300-400 nm using a 1.25 nm slitwidth. Data were accumulated as the average of three determinations performed over an approximately 5 min time span. Samples were maintained at 25° C. or 37° C. during the course of the experiments using a circulating water bath. Crab endotoxin binding protein (CEBP), a protein wherein the intrinsic fluorescence of tryptophan residues is affected by binding to LPS, was used as a positive control. (See Wainwright et al., 1990, Cellular and Molecular Aspects of Endotoxin Reactions, Nowotny et al., eds., Elsevier Science Publishing B.V., The Netherlands, pp. 315-325).
(§3) Kd values were determined by Scatchard-type Stern-Volmer plots of the quenching data as the negative inverse of the slope of such plots. Comparing the data for BPI.10, BPI.46 and BPI.47, it is seen that as the Kd decreased (indicating an increase in avidity for LPS), the percent fluorescence quenching increased. The differences between these peptides include replacement of basic and polar amino acid residues with non-polar residues in […] as compared with BPI.10. In contrast, as the Kd of heparin binding decreased, a corresponding increase in the percentage of fluorescence quenching was not detected.

A short description of assay [2]: LPS binding by tryptophan fluorescence quenching. The following applies: for Kd: Stern-Volmer plots.
Text: as §1, §2, §3

Assay [3] relates to Klebsiella pneumoniae 19645. In words: Radial diffusion bactericidal assay, antibiotic resistant Klebsiella pneumoniae 19645. It is filed as cell-based. As for the experimental part:
These studies were conducted substantially following the procedures used in Example 2.
In order to test the bactericidal activity of BPI peptides on antibiotic resistant strains of Klebsiella pneumoniae, the multi-resistant clinically isolated strain 19645 was tested as in Example 2 and above. […] This strain was obtained from the Baxter Microscan® library (Sacramento, Calif.). An overnight culture of Klebsiella pneumoniae 19645 and a non-resistant strain (ATCC 29011) were diluted 1:50 into fresh tryptic soy broth and incubated for 3 hours at 37° C. to attain log phase. The overnight cultures were tested as described in Example 2 and part A above.

The subject of assay [4] is Staphylococcus aureus. The assay can be described thus: Radial diffusion bactericidal assay, Staphylococcus aureus. Type of assay: cell-based. To be noted: radial diffusion; PROBIT analysis; S. aureus.
Assay [5] has as its system E. coli 0111:B4 (smooth) bacteria. The assay can be described thus: Radial diffusion bactericidal assay, E. coli 0111:B4. To be noted: radial diffusion; for pmol added to well to achieve a 30 mm^2 bactericidal zone, E. coli O111:B4: PROBIT analysis, E. coli O111:B4 (smooth). It is filed as cell-based.
Assay [6] has as its system rough mutant E. coli J5 bacteria. In words: Radial diffusion bactericidal assay, E. coli J5. Type of assay: cell-based. To be noted: radial diffusion; for pmol added to well to achieve a 30 mm^2 bactericidal zone, E. coli J5: PROBIT analysis, E. coli J5 (rough); for bactericidal activity (in words): E. coli J5. The procedure, abridged:
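Wells received 5 or 10 μL of BPI fragment, pre-incubated 3 h at 37 °C. The underlayer agarose carried washed log-phase organisms at 4×10^6 CFU/mL.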

Assay [7] concerns E. coli 0111:B4 (smooth). The assay can be described thus: Broth antibacterial assay, E. coli 0111:B4. It is filed as cell-based. On the procedure:
(§4) In additional experiments, broth antibacterial assays were conducted to further determine the bactericidal activity of certain of the BPI peptides. Specifically, either E. coli J5 (rough) or E. coli 0111:B4 (smooth) bacteria were selected from single colonies on agar plates and used to inoculate 5 mL of Mueller Hinton broth and incubated overnight at 37° C. with shaking. The overnight culture was diluted (˜1:50) into 5 mL fresh broth and incubated at 37° C. to log phase (˜3 hours). Bacteria were pelleted for 5 minutes at 3000 rpm (1500×g). Bacterial pellets were resuspended in 5 mL PBS and diluted to 2×10^6 cells/mL in the Mueller Hinton broth (wherein 1 OD570 unit equals 1.25×10^9 CFU/mL). The BPI functional domain peptides to be tested were diluted to 200 μg/mL in broth and serially diluted 2-fold in 96 well culture plates (100 μL volume). All items were at 2-fold final concentration and experiments were conducted in triplicate. Bacteria were added at 100 μL/well and the plates were incubated on a shaker at 37° C. for a 20 hour period. The plates were then read on an ELISA plate multiple reader at 590 nm. One of the triplicate wells from each peptide concentration was selected for colony forming unit (CFU) determination. A 30 μL aliquot was added to 270 μL of PBS and further ten-fold serial dilutions were performed. Then a 50 μL aliquot was plated on tryptic soy agar and incubated overnight. Colonies were counted and final bacterial concentrations determined. The results of these assays are depicted in FIGS. 9e (for E. coli J5) and 9f (for E. coli 0111:B4).

Assay [8] deals with E. coli J5 (rough). The assay can be described thus: Broth antibacterial assay, E. coli J5. It is filed as cell-based. On the procedure:
as §4

A short description of assay [9]: 3H-heparin binding assay (affinity and capacity). The procedure, abridged: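 Bound 3H-heparin was counted by liquid scintillation after 1 h incubation at 4 °C with fragments immobilised on PVDF-bottomed wells, then washing in blocking buffer. Signal was corrected for BSA-related background, and varying amounts of rBPI23 were used as positive control.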
Assay [10] has as its system RAW 264.7 cells. The assay can be described thus: LPS neutralization cellular proliferation assay, RAW 264.7 cells. It is filed as cell-based, mouse. The procedure, abridged:
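Mouse RAW 264.7 cells were primed 24 h with 50U/mL mouse γ-interferon, then exposed about 15 h to E. coli O113 LPS in serum-free RPMI with or without BPI peptides at 25 ng/mL–50 μg/mL. Proliferation was quantified by [^3H]-thymidine uptake, 1 μCi/well, added at 5 h.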

Assay [11] in a line: Lipid A binding competition with [125I]-rLBP. On the procedure:
A second binding assay was developed, wherein radiolabeled recombinant LPS binding protein ([^125I]-rLBP) was used instead of radiolabeled rBPI23 in competition experiments with BPI functional domain peptides BPI.2, BPI.3, BPI.4, BPI.5, BPI.7, BPI.13, BPI.14, BPI.29, BPI.30 and BPI.48, rBPI, rBPI21Δcys, and rLBP25 were included in these assays as controls. In these experiments, Lipid A was adsorbed to the wells at a concentration of 0.7 μg/mL in methanol. Incubation of radiolabeled rLBP (a total of 650,000 cpm and a specific activity of 3.45 μCi/μg) was performed for 2.5 hr at 37° C. in the presence of BPI peptides in a series of increasing concentrations. IC50 values (i.e., the concentration at which Lipid A binding of radiolabeled rLBP25 is inhibited to one half the value achieved in the absence of the peptide) are shown in accompanying Table XI.

Assay [12] can be described thus: In vitro heparin-mediated lengthening of APTT / clotting time of heparinized plasma. The following applies: FIG. 12g. It is filed as biochemical, human. On the procedure:
In vitro, the effect of BPI combination functional domain peptides was determined on heparin-mediated lengthening of activated partial […] (APTT). The APTT is lengthened by the presence of endogenous or exogenous inhibitors of thrombin formation, such as therapeutically administered heparin. Thus, agents which neutralize the anti-coagulant effects of heparin will reduce the APTT measured by the test. Citrated human plasma (200 μL) was incubated for 1 minute at 37° C. with either 15 μL of diluent (0.15 M NaCl, 0.1 M Tris-HCl, pH 7.4) or 15 μL of the diluent also containing 25 μg/mL heparin (187 units/mg). Various concentrations (from 0.0 to 56 μg/mL) of rBPI23, rBPI21Δcys, or BPI combination peptides BPI.29 (the DIII homodimer) and BPI.30 (heterodimer DII+DIII) in a volume of 15 μL were added, followed immediately by 100 μL of thrombin reagent (Catalog No. 845-4, Sigma Chemical Co., St. Louis. MO). Clotting time ([…]) was measured using a BBL Fibrometer (Becton Dickenson Microbiology Systems, Cockeysville, Md.). […] FIG. 12e illustrates the results obtained with BPI.30 on a non-log scale.

For assay [13], the system named is zymosan-stimulated NO production by RAW 264.7 cells. In words: Zymosan-stimulated NO production by RAW 264.7 cells. It is filed as cell-based, mouse. As for the experimental part:
(§5) An additional LPS neutralization screening assay for BPI functional domain peptides was developed using an assay for NO production in mouse cells treated with LPS (see Lorsbach et al., 1993, J. Biol. Chem. 268: 1908-1913). In this assay, mouse RAW 264.7 cells (ATCC Accession No. TIB71) were treated with bacterial LPS. The cells were incubated in 96-well plates and stimulated for 2 hours with E. coli 0113 LPS or zymosan, in the presence or absence of _-interferon, rLBP, fetal bovine serum (FBS) or normal human serum (NHS), or rBPI21Δcys. After this incubation, the cells were washed with fresh media and incubated overnight in media containing 10% FCS. The NO released from the cells accumulated in the media and spontaneously converted to nitrite. This nitrite was assayed in situ by the Griess reaction, as follows. The nitrite was reacted with the primary amine of an added sulfanilamide and formed a diazonium salt. This salt was then reacted with added naphthylethylenediamine to form a red azo-dyc. The Griess reaction was performed at room temperature in about 10 minutes. The amount of produced NO was estimated from a standard curve of Griess reaction products determined spectrophotometrically as Absorbance at a wavelength of 550 nm.

For assay [14], the system named is LPS-stimulated NO production by RAW 264.7 cells. In words: LPS-stimulated NO production by RAW 264.7 cells. It is filed as cell-based, mouse. As for the experimental part: as §5

Square brackets hold non-standard residues; d marks the D form. Ends that are not written are not given here. 1Nal = N[C@@H](Cc1cccc2ccccc12)C(=O)O

Turning to BPI 73 (IKISGKWKAQFRFLK), in assay [1], the “Quenching Heparin” value is reported as 19% and the Kd is 700 nM. In assay [2], the “Quenching LPS” value was 47% and the Kd worked out at 66 nM.
As for “IKISGKAβ-(1-naphthyl)KAAβ-(1-naphthyl)KRFLK (IKISGK[1Nal]KA[1Nal]KRFLK) [BPI.119]”, the “bactericidal activity (in words)” value in assay [3] is “active against antibiotic resistant Klebsiella”. Moreover, the “pmol added to well to achieve a 30 mm^2 bactericidal zone, S. aureus” value in assay [4] was 166,163.83 pmol. In addition, the “pmol added to well to achieve a 30 mm^2 bactericidal zone, E. coli O111:B4” value in assay [5] is on record as 536.44 pmol. Also, the “pmol added to well to achieve a 30 mm^2 bactericidal zone, E. coli J5” value in assay [6] is reported as 106.70 pmol.
On the same counts, the results for IKISGKWKAWKRFLKK [BPI.103] are “active against antibiotic resistant Klebsiella”, 4,705.95 pmol, 415.19 pmol and 165.18 pmol.
Turning to KRFLKKWKAQKRFLKKWKAQKRFLK [BPI.10.1], the “bactericidal activity (in words)” value in [7] is “significant bactericidal activity”; in assay [5] (E. coli 0111:B4), “exhibited bactericidal activity”; in assay [6], “exhibited bactericidal activity”; in [8], “significant bactericidal activity”.
Turning to KWKAQKRFLKKWKAAARFLK [BPI.47], in [4], the “pmol added to well to achieve a 30 mm^2 bactericidal zone, S. aureus” value was 41,213.59 pmol. Further, the “heparin binding capacity (in words)” value in assay [9] is recorded as “extremely high heparin capacity”. In addition, the “Heparin Capacity” value in [9] (heparin bound at saturation) was determined as 576.4 ng. Besides, the Kd in assay [9] (read-out: Heparin Affinity) amounted to 1910 nM. Also, in [1], the “Quenching Heparin” value is on record as 47% and the Kd was determined as 2200 nM. The “pmol added to well to achieve a 30 mm^2 bactericidal zone, E. coli O111:B4” value in [5] is 576.74 pmol. Moreover, in [6], the “bactericidal activity (in words)” value is reported as “highly bactericidal” and the “pmol added to well to achieve a 30 mm^2 bactericidal zone, E. coli J5” value is on record as 97.73 pmol. Besides, in [2], the “Quenching LPS” value was 41% and the Kd is 115 nM. Also, in assay [10], the “EC50 (peptide concentration at which the growth inhibitory effect of LPS was reversed by 50%)” value was determined as 0.9 ± 0.3 µg/mL and the “IC50 (peptide concentration at which RAW cell growth was inhibited by 50%)” value stood at 9.8 ± 0.1 µg/mL.

B1: rBPI: recombinant BPI holoprotein (SEQ ID NO:69) (protein)
chain: MRENMARGPCNAPRWVSLMVLVAIGTAVTAAVNPGVVVRISQKGLDYASQQGTAALQKELKRIKIPDYSDSFKIKHLGKGHYSFYSMDIREFQLPSSQISMVPNVGLKFSISNANIKISGKWKAQKRFLKMSGNFDLSIEGMSISADLKLGSNPTSGKPTITCSSCSSHINSVHVHISKSKVGWLIQLFHKKIESALRNKMNSQVCEKVTNSVSSKLQPYFQTLPVMTKIDSVAGINYGLVAPPATTAETLDVQMKGEFYSENHHNPPPFAPPVMEFPAAHDRMVYLGLSDYFFNTAGLVYQEAGVLKMTLRDDMIPKESKFRLTTKFFGTFLPEVAKKFPNMKIQIHVSASTPPHLSVQPTGLTFYPAVDVQAFAVLPNSSLASLFLIGMHTTGSMEVSAESNRLVGELKLDRLLLELKHSNIGPFPVELLQDIMNYIVPILVLPRVNEKLQKGFPLPTPARVQLYNVVLQPHQNFLLFGADVVYK
The term IC50 denotes the midpoint of a concentration-inhibition curve. As for B1, the “IC50 (inhibition of Lipid A binding of radiolabeled rLBP)” value in assay [11] is 0.65 µg/mL. For the same molecule, in assay [11] (read-out: IC50 (inhibition of Lipid A binding of radiolabeled rLBP)), the IC50 is 13 nM. In addition, in [12], the “effect on the clotting time of heparinized blood (in words)” value is “less of a decrease in clotting times”. For the same molecule, the “inhibition of zymosan-stimulated NO production (in words)” value in [13] is listed as “no significant inhibition”. The “inhibition of LPS-stimulated NO production (in words)” value in assay [14] is recorded as “inhibited in a concentration-dependent manner”.
